Values of other authors in patent US4883862A, “Mercaptosuccinyl glycyl-glycyl-glycine a complex thereof with Tc-99m, and methods of making the same” (Albert Einstein College of Medicine - of Yeshiva University, priority 1988, dated 1989).

[1] = 3 hrs after intravenous administration of 500 uCi

O=C(O)CNC(=O)c1ccccc1[131I] [I-131 OIH, o-[^131 I]iodohippurate]
radiation dose to a normal kidney [1]: 47 mrad | radiation dose to the bladder wall [1]: 1.7 rad | renal absorbed dose (patients with impaired renal function): ≥ 3 rad
